The values that follow come from patent US20240254087A1, “SELECTIVE, PARTIAL, AND ARRESTIN-BIASED 5-HT2A AGONISTS WITH UTILITY IN VARIOUS DISORDERS” (Saint Joseph's University, priority 2021, published 2024).

T2 sequence (P28223 whole entry): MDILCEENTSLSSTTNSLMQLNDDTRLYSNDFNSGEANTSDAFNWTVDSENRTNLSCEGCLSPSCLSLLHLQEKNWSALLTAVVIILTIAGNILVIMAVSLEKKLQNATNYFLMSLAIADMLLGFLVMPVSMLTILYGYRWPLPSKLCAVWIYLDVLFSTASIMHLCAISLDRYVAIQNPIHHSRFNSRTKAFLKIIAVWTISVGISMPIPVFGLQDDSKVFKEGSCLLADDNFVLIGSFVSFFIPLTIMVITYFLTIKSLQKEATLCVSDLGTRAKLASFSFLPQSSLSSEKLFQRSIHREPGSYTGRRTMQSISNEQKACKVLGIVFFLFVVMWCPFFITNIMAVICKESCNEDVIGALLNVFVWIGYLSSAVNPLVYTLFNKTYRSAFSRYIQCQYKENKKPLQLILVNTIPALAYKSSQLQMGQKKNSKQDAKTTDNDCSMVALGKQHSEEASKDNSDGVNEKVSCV
Sequence of 5-HT1B (P28222 whole entry, species assumed): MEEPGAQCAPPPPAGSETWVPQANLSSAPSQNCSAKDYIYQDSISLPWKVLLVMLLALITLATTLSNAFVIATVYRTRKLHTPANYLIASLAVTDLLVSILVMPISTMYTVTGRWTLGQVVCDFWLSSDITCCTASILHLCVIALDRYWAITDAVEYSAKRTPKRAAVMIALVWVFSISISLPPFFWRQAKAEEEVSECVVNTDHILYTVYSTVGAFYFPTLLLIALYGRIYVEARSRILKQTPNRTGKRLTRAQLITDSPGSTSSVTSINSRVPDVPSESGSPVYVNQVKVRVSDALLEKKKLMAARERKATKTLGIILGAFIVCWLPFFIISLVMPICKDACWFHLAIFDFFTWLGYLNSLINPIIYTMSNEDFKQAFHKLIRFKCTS
Sequence of 5-HT1D (P28221 whole entry, species assumed): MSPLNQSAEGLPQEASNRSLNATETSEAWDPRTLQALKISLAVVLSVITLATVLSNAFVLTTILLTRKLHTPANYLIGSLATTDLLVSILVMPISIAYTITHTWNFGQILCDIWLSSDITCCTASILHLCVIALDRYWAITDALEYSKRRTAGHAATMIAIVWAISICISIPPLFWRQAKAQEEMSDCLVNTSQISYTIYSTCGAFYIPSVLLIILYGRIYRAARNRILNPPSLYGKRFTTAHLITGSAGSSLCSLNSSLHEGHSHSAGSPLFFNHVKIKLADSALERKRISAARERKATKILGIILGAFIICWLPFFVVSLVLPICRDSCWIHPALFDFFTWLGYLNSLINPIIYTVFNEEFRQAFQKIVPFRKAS

One test addresses 5-HT1D (Homo sapiens, UniProt P28221). As to the kind of experiment: Competitive radioligand binding (NIMH PDSP).
Details: not given
How it is done:
(§1) Method 1: Competitive binding experiments were performed by the National Institute of Mental Health Psychoactive Drug Screening Program (NIMH PDSP) using described methods or 5-HT2A experiments performed using [3H]-ketanserin displacement in human 5-HT2A expressing membranes. Target compounds were dissolved in DMSO and an initial screen performed to assess displacement of the radioligand from target receptors at a concentration of 10,000 nM. […] For the Ki experiments, compounds were always tested in triplicate on separate plates. Each plate also contained a known ligand for the receptor as a positive control.
What is called Ki is a dissociation constant, usually derived from enzyme kinetics or from competition with a known ligand. Read a low Ki as higher affinity. As to `COc1cc([N+](=O)[O-])c(OC)cc1CCNCc1cccc(F)c1OC` [25N-NB-2-MeO-3-F (19), [2-(2,5-dimethoxy-4-nitrophenyl)ethyl][(3-fluoro-2-methoxyphenyl)methyl]amine], the inhibition constant (Ki) was > 10000 nM.
The same measure, in the same setting: next, `COc1cc([N+](=O)[O-])c(OC)cc1CCNCc1cccc(C)c1O` [25N-NB-2-OH-3-Me (18), 2-({[2-(2,5-dimethoxy-4-nitrophenyl)ethyl]amino}methyl)-6-methylphenol]: 1290 nM.

Another test concerns the target 5-HT1B (Homo sapiens, UniProt P28222). In words: Competitive radioligand binding (NIMH PDSP).
Details: not given
How it is done:
as §1
As to `COc1cc([N+](=O)[O-])c(OC)cc1CCNCc1cccc(F)c1OC` [25N-NB-2-MeO-3-F (19), [2-(2,5-dimethoxy-4-nitrophenyl)ethyl][(3-fluoro-2-methoxyphenyl)methyl]amine], the Ki was > 10000 nM.
On the same count and under the same terms, next, `COc1cc([N+](=O)[O-])c(OC)cc1CCNCc1cccc(C)c1O` [25N-NB-2-OH-3-Me (18), 2-({[2-(2,5-dimethoxy-4-nitrophenyl)ethyl]amino}methyl)-6-methylphenol]: > 10000 nM.

The target in a further test is 5-HT1e (Homo sapiens, UniProt P28566). As to the kind of experiment: Competitive radioligand binding (NIMH PDSP).
Sequence of 5-HT1e (P28566 whole entry, species assumed): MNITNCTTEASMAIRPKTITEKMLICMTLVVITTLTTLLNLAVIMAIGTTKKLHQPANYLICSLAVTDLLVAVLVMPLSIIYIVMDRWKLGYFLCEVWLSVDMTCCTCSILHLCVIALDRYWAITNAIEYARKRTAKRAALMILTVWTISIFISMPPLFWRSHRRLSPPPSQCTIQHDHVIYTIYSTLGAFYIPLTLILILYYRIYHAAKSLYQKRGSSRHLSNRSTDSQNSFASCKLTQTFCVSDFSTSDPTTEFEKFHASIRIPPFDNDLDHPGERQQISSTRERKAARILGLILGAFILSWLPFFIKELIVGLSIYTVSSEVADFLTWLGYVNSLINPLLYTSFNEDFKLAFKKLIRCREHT
Details: not given
Here is the method:
as §1
For `COc1cc([N+](=O)[O-])c(OC)cc1CCNCc1cccc(F)c1OC` [25N-NB-2-MeO-3-F (19), [2-(2,5-dimethoxy-4-nitrophenyl)ethyl][(3-fluoro-2-methoxyphenyl)methyl]amine], the Ki is > 10000 nM.
Consider `COc1cc([N+](=O)[O-])c(OC)cc1CCNCc1cccc(C)c1O` [25N-NB-2-OH-3-Me (18), 2-({[2-(2,5-dimethoxy-4-nitrophenyl)ethyl]amino}methyl)-6-methylphenol], for which the inhibition constant Ki was > 10000 nM.

In another test the target is T1, 5-HT1A (Homo sapiens, UniProt P08908).
T1 sequence (P08908 1-422): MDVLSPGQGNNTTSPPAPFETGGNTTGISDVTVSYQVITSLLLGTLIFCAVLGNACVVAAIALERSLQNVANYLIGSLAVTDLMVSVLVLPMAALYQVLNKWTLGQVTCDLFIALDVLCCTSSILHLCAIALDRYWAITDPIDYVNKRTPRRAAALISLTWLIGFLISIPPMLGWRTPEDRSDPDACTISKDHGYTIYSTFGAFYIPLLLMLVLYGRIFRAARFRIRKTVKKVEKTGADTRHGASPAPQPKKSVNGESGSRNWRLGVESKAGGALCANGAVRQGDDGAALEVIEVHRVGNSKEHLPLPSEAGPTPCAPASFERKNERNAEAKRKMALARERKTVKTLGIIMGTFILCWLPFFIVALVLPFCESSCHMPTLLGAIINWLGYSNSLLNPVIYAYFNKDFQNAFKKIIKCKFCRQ
As to the kind of experiment: Competitive radioligand binding (NIMH PDSP).
Details: not given
Here is the method: as §1
The compound `COc1cc([N+](=O)[O-])c(OC)cc1CCNCc1cccc(F)c1OC` [25N-NB-2-MeO-3-F (19), [2-(2,5-dimethoxy-4-nitrophenyl)ethyl][(3-fluoro-2-methoxyphenyl)methyl]amine] showed an inhibition constant Ki of 1000 nM.
The compound `COc1cc([N+](=O)[O-])c(OC)cc1CCNCc1cccc(C)c1O` [25N-NB-2-OH-3-Me (18), 2-({[2-(2,5-dimethoxy-4-nitrophenyl)ethyl]amino}methyl)-6-methylphenol] showed an inhibitory constant (Ki) of 186 nM.

Another test concerns the target T2, 5-HT2A (Homo sapiens, UniProt P28223). As to the kind of experiment: Competitive radioligand binding (NIMH PDSP).
Details: not given
Here is the method: as §1
The compound `COc1cc([N+](=O)[O-])c(OC)cc1CCNCc1cccc(F)c1OC` [25N-NB-2-MeO-3-F (19), [2-(2,5-dimethoxy-4-nitrophenyl)ethyl][(3-fluoro-2-methoxyphenyl)methyl]amine] had an inhibition constant Ki of 7.41 nM.
Same read-out and setting: next, `COc1cc([N+](=O)[O-])c(OC)cc1CCNCc1cccc(C)c1O` [25N-NB-2-OH-3-Me (18), 2-({[2-(2,5-dimethoxy-4-nitrophenyl)ethyl]amino}methyl)-6-methylphenol]: 0.479 nM.

A further test concerns the target T3, 5-HT3 (Homo sapiens, UniProt P46098).
T3 sequence (P46098 24-478): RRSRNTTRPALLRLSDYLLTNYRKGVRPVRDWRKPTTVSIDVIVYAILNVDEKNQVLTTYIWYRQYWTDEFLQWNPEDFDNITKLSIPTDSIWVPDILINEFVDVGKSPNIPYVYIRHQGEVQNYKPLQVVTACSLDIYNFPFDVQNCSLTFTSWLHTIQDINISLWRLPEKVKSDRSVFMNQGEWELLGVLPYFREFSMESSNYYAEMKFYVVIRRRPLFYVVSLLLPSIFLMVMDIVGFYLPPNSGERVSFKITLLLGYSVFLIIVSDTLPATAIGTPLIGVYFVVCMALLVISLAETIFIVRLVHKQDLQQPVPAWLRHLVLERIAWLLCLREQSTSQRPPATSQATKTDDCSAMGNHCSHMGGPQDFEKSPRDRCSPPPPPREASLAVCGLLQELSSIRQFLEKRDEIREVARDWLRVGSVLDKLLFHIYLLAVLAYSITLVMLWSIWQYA
As to the kind of experiment: Competitive radioligand binding (NIMH PDSP).
Details: not given
How it is done: as §1
For the compound `COc1cc([N+](=O)[O-])c(OC)cc1CCNCc1cccc(F)c1OC` [25N-NB-2-MeO-3-F (19), [2-(2,5-dimethoxy-4-nitrophenyl)ethyl][(3-fluoro-2-methoxyphenyl)methyl]amine], the Ki was > 10000 nM.
Same read-out and setting: next, `COc1cc([N+](=O)[O-])c(OC)cc1CCNCc1cccc(C)c1O` [25N-NB-2-OH-3-Me (18), 2-({[2-(2,5-dimethoxy-4-nitrophenyl)ethyl]amino}methyl)-6-methylphenol]: > 10000 nM.

The next test has as its system 5-HT2A. As to the kind of experiment: Ca2+ flux assay, 5-HT2A. As to conditions: Gq/11 Ca2+ mobilization; higher number = skewed towards 5-HT2A. The format is cell-based, human. (In general: A change in cytosolic calcium serves as a functional read-out for many receptors and channels.)
On to `COc1cc([N+](=O)[O-])c(OC)cc1CCNCc1cccc(F)c1OC` [25N-NB-2-MeO-3-F (19), [2-(2,5-dimethoxy-4-nitrophenyl)ethyl][(3-fluoro-2-methoxyphenyl)methyl]amine], for which the “5-HT2A/5-HT2c Selectivity Factor ΔLog(Emax/EC50)” value is listed as 33.8.
`COc1cc([N+](=O)[O-])c(OC)cc1CCNCc1cccc(C)c1O` [25N-NB-2-OH-3-Me (18), 2-({[2-(2,5-dimethoxy-4-nitrophenyl)ethyl]amino}methyl)-6-methylphenol]: the “5-HT2A/5-HT2c Selectivity Factor ΔLog(Emax/EC50)” value was 5-HT2A Selective.

In another test the target is T4, 5-HT2B (Homo sapiens, UniProt P41595). In words: Ca2+ flux assay, 5-HT2B. The format is cell-based. Also on record: expressed in transfected cells. As to conditions: Ca2+ flux.
T4 sequence (P41595 whole entry): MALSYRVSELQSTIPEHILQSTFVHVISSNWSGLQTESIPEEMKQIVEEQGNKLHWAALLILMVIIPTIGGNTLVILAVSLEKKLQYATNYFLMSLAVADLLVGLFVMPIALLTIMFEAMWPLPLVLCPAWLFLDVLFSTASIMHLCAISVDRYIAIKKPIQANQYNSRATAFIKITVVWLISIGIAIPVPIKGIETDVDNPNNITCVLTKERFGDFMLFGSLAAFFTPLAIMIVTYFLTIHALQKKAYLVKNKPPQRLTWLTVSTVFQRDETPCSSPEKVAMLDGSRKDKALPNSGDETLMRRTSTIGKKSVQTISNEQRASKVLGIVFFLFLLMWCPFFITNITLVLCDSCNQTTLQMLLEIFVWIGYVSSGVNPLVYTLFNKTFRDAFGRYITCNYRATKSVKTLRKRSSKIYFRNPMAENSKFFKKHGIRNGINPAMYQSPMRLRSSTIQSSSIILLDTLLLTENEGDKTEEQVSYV
With `COc1cc([N+](=O)[O-])c(OC)cc1CCNCc1cccc(F)c1OC` [25N-NB-2-MeO-3-F (19), [2-(2,5-dimethoxy-4-nitrophenyl)ethyl][(3-fluoro-2-methoxyphenyl)methyl]amine], the “5-HT2B EC50, nM” value was “No activity”.
Same read-out and setting: next, `COc1cc([N+](=O)[O-])c(OC)cc1CCNCc1cccc(C)c1O` [25N-NB-2-OH-3-Me (18), 2-({[2-(2,5-dimethoxy-4-nitrophenyl)ethyl]amino}methyl)-6-methylphenol]: “No activity”.

The same test, now with this note: read-out: 5-HT2B Emax % 5-HT; Ca2+ flux.
As a reminder, the Emax is the greatest response seen or fitted, relative to the assay's reference. As to `COc1cc([N+](=O)[O-])c(OC)cc1CCNCc1cccc(F)c1OC` [25N-NB-2-MeO-3-F (19), [2-(2,5-dimethoxy-4-nitrophenyl)ethyl][(3-fluoro-2-methoxyphenyl)methyl]amine], the Emax is < 10%.
The same measure, in the same setting: next, `COc1cc([N+](=O)[O-])c(OC)cc1CCNCc1cccc(C)c1O` [25N-NB-2-OH-3-Me (18), 2-({[2-(2,5-dimethoxy-4-nitrophenyl)ethyl]amino}methyl)-6-methylphenol]: < 10%.

The next test addresses T2, 5-HT2A. As to the kind of experiment: Ca2+ flux assay, 5-HT2A. To be noted: 5-HT2A EC50, nM, Ca2+ flux. Also on record: expressed in transfected cells. The class given is cell-based.
As a reminder, the EC50 is the concentration that produces a half-maximal response. High values mean lower potency in that assay, low ones higher potency in that assay. On to `COc1cc([N+](=O)[O-])c(OC)cc1CCNCc1cccc(F)c1OC` [25N-NB-2-MeO-3-F (19), [2-(2,5-dimethoxy-4-nitrophenyl)ethyl][(3-fluoro-2-methoxyphenyl)methyl]amine], for which it took 2.35 nM to reach a half-maximal effect (EC50).
The same measure, in the same setting: next, `COc1cc([N+](=O)[O-])c(OC)cc1CCNCc1cccc(C)c1O` [25N-NB-2-OH-3-Me (18), 2-({[2-(2,5-dimethoxy-4-nitrophenyl)ethyl]amino}methyl)-6-methylphenol]: 1.58 nM.

The test is the same for the next values; noted with them: read-out: 5-HT2A Emax % 5-HT, Ca2+ flux.
With `COc1cc([N+](=O)[O-])c(OC)cc1CCNCc1cccc(F)c1OC` [25N-NB-2-MeO-3-F (19), [2-(2,5-dimethoxy-4-nitrophenyl)ethyl][(3-fluoro-2-methoxyphenyl)methyl]amine], the Emax was 83 ± 1%.
Regarding `COc1cc([N+](=O)[O-])c(OC)cc1CCNCc1cccc(C)c1O` [25N-NB-2-OH-3-Me (18), 2-({[2-(2,5-dimethoxy-4-nitrophenyl)ethyl]amino}methyl)-6-methylphenol], the Emax was 55 ± 2%.

A further test deals with T5, 5-HT2C (Homo sapiens, UniProt P28335).
T5 sequence (P28335 33-458): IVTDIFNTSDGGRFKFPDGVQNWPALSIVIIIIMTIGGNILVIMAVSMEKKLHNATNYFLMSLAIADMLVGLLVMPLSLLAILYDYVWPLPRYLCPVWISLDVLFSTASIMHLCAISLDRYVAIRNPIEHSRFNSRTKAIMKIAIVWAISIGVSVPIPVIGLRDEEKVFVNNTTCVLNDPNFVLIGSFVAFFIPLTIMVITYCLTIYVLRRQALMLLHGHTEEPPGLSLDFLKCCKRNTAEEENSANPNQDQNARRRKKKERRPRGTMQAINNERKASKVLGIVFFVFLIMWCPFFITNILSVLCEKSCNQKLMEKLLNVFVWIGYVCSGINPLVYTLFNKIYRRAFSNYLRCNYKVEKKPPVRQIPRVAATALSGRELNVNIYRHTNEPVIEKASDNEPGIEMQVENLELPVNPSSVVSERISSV
As to the kind of experiment: Competitive radioligand binding (NIMH PDSP). Also on record: expressed in transfected cells.
Details: not given
Here is the method:
as §1
`COc1cc([N+](=O)[O-])c(OC)cc1CCNCc1cccc(F)c1OC` [25N-NB-2-MeO-3-F (19), [2-(2,5-dimethoxy-4-nitrophenyl)ethyl][(3-fluoro-2-methoxyphenyl)methyl]amine] had an inhibition constant Ki of 40.7 nM.
On the same count and under the same terms, next, `COc1cc([N+](=O)[O-])c(OC)cc1CCNCc1cccc(C)c1O` [25N-NB-2-OH-3-Me (18), 2-({[2-(2,5-dimethoxy-4-nitrophenyl)ethyl]amino}methyl)-6-methylphenol]: 2.88 nM.

The target in the next test is T4, 5-HT2B. As to the kind of experiment: Competitive radioligand binding (NIMH PDSP). Also on record: expressed in transfected cells.
Details: not given
How it is done:
as §1
On to `COc1cc([N+](=O)[O-])c(OC)cc1CCNCc1cccc(F)c1OC` [25N-NB-2-MeO-3-F (19), [2-(2,5-dimethoxy-4-nitrophenyl)ethyl][(3-fluoro-2-methoxyphenyl)methyl]amine], for which affinity was put at a Ki of 25.1 nM.
Still for that read-out and setting: next, `COc1cc([N+](=O)[O-])c(OC)cc1CCNCc1cccc(C)c1O` [25N-NB-2-OH-3-Me (18), 2-({[2-(2,5-dimethoxy-4-nitrophenyl)ethyl]amino}methyl)-6-methylphenol]: 0.776 nM.

The next test deals with T5, 5-HT2C. As to the kind of experiment: Ca2+ flux assay, 5-HT2C. The class given is cell-based.
Details: not given
Also on record: expressed in transfected cells.
Regarding `COc1cc([N+](=O)[O-])c(OC)cc1CCNCc1cccc(C)c1O` [25N-NB-2-OH-3-Me (18), 2-({[2-(2,5-dimethoxy-4-nitrophenyl)ethyl]amino}methyl)-6-methylphenol], the “5-HT2C EC50, nM” value was “No activity”.

The test is the same for the next values; noted with them: 5-HT2C EC50, nM.
Consider `COc1cc([N+](=O)[O-])c(OC)cc1CCNCc1cccc(F)c1OC` [25N-NB-2-MeO-3-F (19), [2-(2,5-dimethoxy-4-nitrophenyl)ethyl][(3-fluoro-2-methoxyphenyl)methyl]amine], for which the concentration giving a half-maximal response (EC50) came out at 74.5 nM.

Still in this test, the particulars now being: read-out: 5-HT2C Emax % 5-HT.
As for `COc1cc([N+](=O)[O-])c(OC)cc1CCNCc1cccc(F)c1OC` [25N-NB-2-MeO-3-F (19), [2-(2,5-dimethoxy-4-nitrophenyl)ethyl][(3-fluoro-2-methoxyphenyl)methyl]amine], the maximal response (Emax) was 77 ± 2%.
Same read-out and setting: next, `COc1cc([N+](=O)[O-])c(OC)cc1CCNCc1cccc(C)c1O` [25N-NB-2-OH-3-Me (18), 2-({[2-(2,5-dimethoxy-4-nitrophenyl)ethyl]amino}methyl)-6-methylphenol]: < 10%.
